# Article PMC10786919, “Design-rules for stapled peptides with in vivo activity and their application to Mdm2/X antagonists” (Nature Communications, 2024)
# Like-named read-outs stand apart in the source and are kept apart here. Positions of bridges follow the written chain, without caps; N, C: chain ends. Non-standard residues stand in square brackets, D forms with d. Residues, ends and D or L forms follow the SMILES beside them. Lys(N3) = [N-]=[N+]=NCCCC[C@H](N)C(=O)O; hArg = N=C(N)NCCCC[C@H](N)C(=O)O; R8 = C=CCCCCCC[C@@](C)(N)C(=O)O; Cba = N[C@@H](CC1CCC1)C(=O)O; S5 = C=CCCC[C@](C)(N)C(=O)O; Aib = CC(C)(N)C(=O)O; βAla = NCCC(=O)O
# Key:
# [1] = Experimental LogD (partition coefficient); conditions: for logD: not stated, Partition Coeff LogD
# physchem [2] = experiment: physchem
# in vitro = experiment: in vitro
# Procedure, shortened: (§1)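 Azido-peptide permeability was read as loss of NanoBRET signal (donor 450 nm, acceptor 610 nm) after adding NanoBret618-azide at 10 μM final.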
# [3] = Solubility assay (kinetic solubility, PBS pH 7); format: physicochemical; conditions: pH 7, PBS; for solubility kinetic: pH 7, aqueous buffer, kinetic from dmso stock, read-out: Solubility
# Procedure, shortened: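 Std: 10 mM stock → 100 µM in ACN/MeOH/DMSO (10:80:10). Sol. [µM] = (sample peak area / std peak area) × std conc.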
# [4] = Lactate dehydrogenase (LDH) release assay; format: cell-based
# Procedure, shortened: (§2)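 Geometric means of at least three independent biological runs are given for LDH release measured in HCT116 cells stably expressing a p53-driven β-lactamase reporter. Plating density was 8000 cells/well; DMSO in wells was 0.5%.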
# physchem [5] = experiment: physchem; remark: listed apart in the source
# [6] = Circular dichroism (CD) helicity; format: physicochemical
# Protocol: A total of 5 µL of the 10 mM stock peptide was mixed with 45 µL of 100% methanol, and dried for 2 h in the SpeedVac concentrator (Thermo Scientific). The dried peptide was reconstituted in a buffer (1 mM Hepes pH 7.4 and 5% methanol) to a concentration of 1 mM. The peptide sample was placed in a quartz cuvette with a path length of 0.2 cm. The peptide concentration was determined by the absorbance of the peptide at […]. The CD spectrum was recorded from 300 to 190 nm using the Chirascan-plus qCD machine (Applied Photophysics, Surrey, UK), at 25 °C. All experiments were done in duplicates. The CD spectrum was converted to mean residue ellipticity before deconvolution and estimation of the secondary structure components of the peptide using the CDNN software (distributed by Applied Photophysics). Measurements were taken at least twice and were reported as arithmetic means.
# [7] = tested on: cells transiently transfected with the NanoLuc-HaloTag vector; experiment: Nanoclick permeability assay; conditions: 4Hr
# Procedure, shortened: as §1
# [8] = tested on: Jump-In T-REx CHO-K1 BLA cells; experiment: cells; format: cell-based
# HCT116 cells = experiment: Lactate dehydrogenase (LDH) release assay; format: cell-based
# Procedure, shortened: as §2
# [9] = tested on: p53 responsive β-lactamase reporter in HCT116 cells; experiment: cells; format: cell-based; conditions: 0% FBS 4Hr; read-out: p53 reporter assay: EC50
# Procedure, shortened: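 Read-out used the ToxBLAzer Dual Screen for β-lactamase driven by a stably integrated p53-responsive reporter. Assay: 8000 HCT116 cells per well at 0.5% final DMSO. Reported numbers are geometric means over a minimum of three biological replicates.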
# [10] = Nanoclick permeability assay EC50
SMILES,EPSA (physchem [2]),cell entry EC50 (in vitro; [10]),EC50 ([4]; LDH: Cytotoxicity assay EC50),logD [1],solubility kinetic [3],other results
CC(=O)N[C@@H](CCCCN=[N+]=[N-])C(=O)NCCC(=O)N[C@@H](CC(C)C)C(=O)N[C@H](C(=O)N[C@@H](Cc1ccccc1)C(=O)N[C@]1(C)CCCCCCC=CCCC[C@@](C)(C(=O)N[C@@H](CCCCNC(=N)N)C(=O)N[C@@H](C)C(=O)N[C@@H](C)C(N)=O)NC(=O)[C@H](CC2CCC2)NC(=O)[C@H](CCC(N)=O)NC(=O)[C@H](C)NC(=O)[C@H](Cc2c[nH]c3ccccc23)NC(=O)[C@H](Cc2ccc(O)cc2)NC(=O)[C@H](CCC(=O)O)NC1=O)[C@@H](C)O [MP-901] (Ac-[Lys(N3)][βAla]LTF[R8]EYWAQ[Cba][S5][hArg]AA-NH2; staple 6-13),186 A^2,0.46 µM,> 50.6 µM,–,–,Partition Coeff LogD [1]: Poorly Behaved; Solubility [3]: Poorly Behaved
CC(=O)N[C@@H](CCCCN=[N+]=[N-])C(=O)NCCC(=O)N[C@@H](CC(C)C)C(=O)N[C@H](C(=O)N[C@@H](Cc1ccccc1)C(=O)N[C@]1(C)CCCCCCC=CCCC[C@@](C)(C(=O)N[C@@H](CO)C(=O)N[C@@H](C)C(=O)N[C@@H](CCCCNC(=N)N)C(N)=O)NC(=O)[C@H](CC2CCC2)NC(=O)[C@H](CCC(N)=O)NC(=O)[C@H](C)NC(=O)[C@H](Cc2c[nH]c3ccccc23)NC(=O)[C@H](Cc2ccc(O)cc2)NC(=O)[C@H](CCC(=O)O)NC1=O)[C@@H](C)O [MP-902] (Ac-[Lys(N3)][βAla]LTF[R8]EYWAQ[Cba][S5]SA[hArg]-NH2; staple 6-13),191 A^2,2.65 µM,> 50 µM,2.54,6 µM,–
CC(=O)N[C@@H](CCCCN=[N+]=[N-])C(=O)NCCC(=O)N[C@@H](CC(C)C)C(=O)N[C@H](C(=O)N[C@@H](Cc1ccccc1)C(=O)N[C@]1(C)CCCCCCC=CCCC[C@@](C)(C(=O)N[C@@H](CO)C(=O)N[C@@H](C)C(=O)N[C@@H](C)C(N)=O)NC(=O)[C@H](CC2CCC2)NC(=O)[C@H](CCC(N)=O)NC(=O)[C@H](C)NC(=O)[C@H](Cc2c[nH]c3ccccc23)NC(=O)[C@H](Cc2ccc(O)cc2)NC(=O)[C@@H]2CCCN2C1=O)[C@@H](C)O [MP-8834],–,–,–,3.03,–,"EPSA (physchem [5]): 187 A^2; CD % Helicity [6]: 21.9%; Nanoclick permeability assay % Effect [7]: 129.4%; cell entry EC50 (in vitro): 0.312 µM; TETCHO: Counterscreen % Effect ([8]; 0% FBS 4Hr): 11.7%; LDH: Cytotoxicity assay: % Effect (HCT116 cells; 0% FBS 4Hr): 1.728%; EC50 ([4]; 0% FBS 4Hr, read-out: LDH: Cytotoxicity assay: EC50): > 50.6 µM"
CC(=O)N[C@@H](CC(C)C)C(=O)N[C@H](C(=O)N[C@@H](Cc1ccccc1)C(=O)N[C@]1(C)CCCCCCC=CCCC[C@@](C)(C(=O)N[C@@H](CO)C(=O)N[C@@H](C)C(=O)N[C@@H](C)C(=O)NCCCCCC(N)=O)NC(=O)[C@H](CC2CCC2)NC(=O)[C@H](CCC(N)=O)NC(=O)[C@H](C)NC(=O)[C@H](Cc2c[nH]c3ccccc23)NC(=O)[C@H](Cc2ccc(O)cc2)NC(=O)[C@H](CCC(=O)O)NC1=O)[C@@H](C)O [MP-670],193 A^2,–,> 50 µM,–,–,Partition Coeff LogD [1]: Poorly Behaved; Solubility [3]: Poorly Behaved
CC[C@H](C)[C@H](NC(=O)[C@H](CC(C)C)NC(=O)[C@@H]1CCCN1C(C)=O)C(=O)N[C@@H](Cc1ccc(O)cc1)C(=O)N[C@@H](CC(C)C)C(=O)N[C@@H](CCCNC(=N)N)C(=O)N[C@@H](CC(C)C)C(=O)N[C@@H](CC(C)C)C(=O)N[C@@H](CCCNC(=N)N)C(=O)NCC(=O)N[C@@H](CCC(N)=O)C(=O)N[C@@H](Cc1ccccc1)C(=O)N[C@@H](CCCCN=[N+]=[N-])C(=O)NCCC(=O)N[C@@H](CC(C)C)C(=O)N[C@H](C(=O)N[C@@H](Cc1ccccc1)C(=O)N[C@]1(C)CCCCCCC=CCCC[C@@](C)(C(=O)N[C@@H](CO)C(=O)N[C@@H](C)C(=O)N[C@@H](C)C(N)=O)NC(=O)[C@H](CC2CCC2)NC(=O)[C@H](CCC(N)=O)NC(=O)[C@H](C)NC(=O)[C@H](Cc2c[nH]c3ccccc23)NC(=O)[C@H](Cc2ccc(O)cc2)NC(=O)[C@H](CCC(=O)O)NC1=O)[C@@H](C)O [MP-880],245 A^2,0.569 µM,> 50 µM,3.54,2 µM,–
CC(=O)N[C@@H](CC(C)C)C(=O)N[C@H](C(=O)N[C@@H](Cc1ccccc1)C(=O)NC(C)(C)C(=O)N[C@@H](CCC(=O)O)C(=O)N[C@@H](Cc1ccc(O)cc1)C(=O)N[C@@H](Cc1c[nH]c2ccccc12)C(=O)N[C@@H](C)C(=O)N[C@@H](CCC(N)=O)C(=O)N[C@@H](CC(C)C)C(=O)NC(C)(C)C(=O)N[C@@H](CO)C(N)=O)[C@@H](C)O [MP-790] (Ac-LTF[Aib]EYWAQL[Aib]S-NH2),–,–,–,2.11,88 µM,"EPSA (physchem [5]): 176 A^2; EC50 [9]: > 50.6 µM; CD % Helicity [6]: 19%; Nanoclick permeability assay % Effect [7]: -7.015%; TETCHO: Counterscreen % Effect ([8]; 0% FBS 4Hr): 9.13%; EC50 ([8]; 0% FBS 4Hr, read-out: TETCHO: Counterscreen EC50): > 50.6 µM; TETCHO: Counterscreen % Effect ([8]; 0% FBS 16Hr): 119.2%; LDH: Cytotoxicity assay: % Effect (HCT116 cells): -1.73%; EC50 ([4]; LDH: Cytotoxicity assay: EC50): > 50.6 µM"
CC(=O)N[C@@H](CCCCN=[N+]=[N-])C(=O)NCCC(=O)N[C@@H](CC(C)C)C(=O)N[C@H](C(=O)N[C@@H](Cc1ccccc1)C(=O)N[C@]1(C)CCCCCCC=CCCC[C@@](C)(C(=O)N[C@@H](CO)C(=O)N[C@@H](C)C(=O)N[C@@H](C)C(N)=O)NC(=O)[C@H](CC2CCC2)NC(=O)[C@H](CCC(N)=O)NC(=O)[C@H](CCCCNC(=N)N)NC(=O)[C@H](Cc2c[nH]c3ccccc23)NC(=O)[C@H](Cc2ccc(O)cc2)NC(=O)[C@H](CCC(=O)O)NC1=O)[C@@H](C)O [MP-899] (Ac-[Lys(N3)][βAla]LTF[R8]EYW[hArg]Q[Cba][S5]SAA-NH2; staple 6-13),200 A^2,0.189 µM,> 50 µM,2.76,2 µM,–
CC(=O)N[C@@H](CCCCN=[N+]=[N-])C(=O)NCCC(=O)N[C@@H](CC(C)C)C(=O)N[C@H](C(=O)N[C@@H](Cc1ccccc1)C(=O)N[C@]1(C)CCCCCCC=CCCC[C@@](C)(C(=O)N[C@@H](CO)C(=O)N[C@@H](C)C(=O)N[C@@H](C)C(N)=O)NC(=O)[C@H](CC2CCC2)NC(=O)[C@H](CCCCNC(=N)N)NC(=O)[C@H](C)NC(=O)[C@H](Cc2c[nH]c3ccccc23)NC(=O)[C@H](Cc2ccc(O)cc2)NC(=O)[C@H](CCC(=O)O)NC1=O)[C@@H](C)O [MP-900] (Ac-[Lys(N3)][βAla]LTF[R8]EYWA[hArg][Cba][S5]SAA-NH2; staple 6-13),187 A^2,1.04 µM,–,3.03,10 µM,–
CC(=O)N[C@@H](CCCCN=[N+]=[N-])C(=O)NCCC(=O)N[C@@H](CC(C)C)C(=O)N[C@H](C(=O)N[C@@H](Cc1ccccc1)C(=O)N[C@]1(C)CCCCCCC=CCCC[C@@](C)(C(=O)N[C@@H](CO)C(=O)N[C@@H](C)C(=O)N[C@@H](C)C(N)=O)NC(=O)[C@H](CC2CCC2)NC(=O)[C@H](CCC(N)=O)NC(=O)[C@H](C)NC(=O)[C@H](Cc2c[nH]c3ccccc23)NC(=O)[C@H](Cc2ccc(O)cc2)NC(=O)[C@H](CCCCNC(=N)N)NC1=O)[C@@H](C)O [MP-6898] (Ac-[Lys(N3)][βAla]LTF[R8][hArg]YWAQ[Cba][S5]SAA-NH2; staple 6-13),181 A^2,2.12 µM,12.4 µM,3.21,2 µM,–
